This is an account of results in patent publication USRE42700E1, “Induction of apoptosis in cancer cells” (Sanford-Burnham Medical Research Institute, priority 2001, dated 2011).

Peptide text beside a SMILES is read from it. * marks the point of attachment. Cbz = O=C(OCc1ccccc1)*; CH2F = FC*

Data set [1] has as its system human leukemia cell line HL-60R. The following applies: cited from earlier work.
For data set [2], the target named is RAR subtype α (Homo sapiens, UniProt P10276). As to conditions: cited from earlier work.
Chain of RAR subtype α (P10276 whole entry): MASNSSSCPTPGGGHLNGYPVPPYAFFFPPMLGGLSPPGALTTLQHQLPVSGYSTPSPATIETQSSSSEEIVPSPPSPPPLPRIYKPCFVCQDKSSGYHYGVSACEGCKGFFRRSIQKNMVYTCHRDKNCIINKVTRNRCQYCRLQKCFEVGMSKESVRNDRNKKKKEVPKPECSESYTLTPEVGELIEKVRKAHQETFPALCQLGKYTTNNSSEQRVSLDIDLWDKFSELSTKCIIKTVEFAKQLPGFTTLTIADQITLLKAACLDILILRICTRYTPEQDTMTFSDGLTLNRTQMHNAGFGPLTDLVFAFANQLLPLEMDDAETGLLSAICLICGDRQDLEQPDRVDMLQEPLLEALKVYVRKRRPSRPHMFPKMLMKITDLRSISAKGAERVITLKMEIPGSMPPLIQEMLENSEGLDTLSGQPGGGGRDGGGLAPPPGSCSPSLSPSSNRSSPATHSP
The subject of data set [3] is RXRs. The following applies: cited from earlier work.
The test system of data set [4] is p38 and JNK kinases (HL-60R human leukemia cell line). As to conditions: cited from earlier work.
The test system of data set [5] is cell line ALL-REH. The following applies: ALL-REH cells; cited from earlier work.
Data set [6] addresses RARγ (Homo sapiens, UniProt P13631). As to conditions: 1 μM; cited from earlier work.
In data set [7] the test system is AML cells. The experiment in a line: growth of AML cells in SCID mice. Format: in vivo, mouse.
Data set [8] has as its system ALL cells obtained from patients. As to conditions: background section; cited from earlier work.
Data set [9] has as its system mouse mammary adenocarcinoma 16/C. Put plainly: mouse mammary adenocarcinoma 16/C in syngeneic female C3H mice. As to the method: The ability of 3-Cl-AHPC to inhibit the in vivo growth of breast carcinoma cells was tested using syngeneic mouse mammary and human breast adenocarcinoma SCID xenograft models.
For data set [10], the target named is RARβ (Homo sapiens, UniProt P10826). As to conditions: 1 μM; cited from earlier work.
Chain of RARβ (P10826 whole entry, species assumed): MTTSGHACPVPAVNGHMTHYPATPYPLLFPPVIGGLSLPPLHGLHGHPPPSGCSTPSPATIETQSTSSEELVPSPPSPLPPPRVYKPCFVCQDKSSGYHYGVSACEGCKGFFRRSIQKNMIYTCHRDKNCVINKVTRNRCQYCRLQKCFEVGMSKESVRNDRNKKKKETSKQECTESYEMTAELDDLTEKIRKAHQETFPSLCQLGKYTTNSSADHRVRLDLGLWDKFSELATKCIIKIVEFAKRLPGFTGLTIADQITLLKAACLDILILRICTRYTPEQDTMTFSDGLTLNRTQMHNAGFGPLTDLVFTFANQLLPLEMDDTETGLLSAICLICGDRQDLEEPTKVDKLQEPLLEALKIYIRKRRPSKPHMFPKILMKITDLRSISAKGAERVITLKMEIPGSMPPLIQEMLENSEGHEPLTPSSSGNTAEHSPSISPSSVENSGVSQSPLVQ
Data set [11] has as its system cell line K562. The following applies: cited from earlier work.
In data set [12] the test system is M07e or patient leukemia cells. Put plainly: effect of kinase inhibitors on 3-Cl-AHPC-mediated apoptosis. Format: cell-based, human. As to conditions: at concentrations inhibiting p38 or ERK activation.
Experimental: After 3-Cl-AHPC treatment, cells were harvested, washed with PBS and resuspended at 1×10^6 cells/ml. Cell suspensions (50 μl) were stained with 5 ml of acridine orange solution (100 mg/ml) in PBS in the dark. Cells displaying fragmented DNA were detected using a fluorescent microscope. Apoptotic cells were also detected using a kit. Cells that incorporated fluorescein labeled deoxyuridine triphosphate were detected using flow cytometry.
The subject of data set [13] is ERK, p38 and JNK kinases in M07e and patient leukemic cells. The experiment in a line: activation of MAPK pathways (phospho-p38, phospho-ERK, phospho-JNK Western blots). The format is cell-based, human. The following applies: 50 μM inhibitor. As to the method: (§1) Western Blots: Western blots were performed according to the protocol of Sheikh, M. S., et al., (Oncogene, 9: 3407-3415 (1994)). Logarithmically growing cells were treated with 3-Cl-AHPC for various times and cells were harvested and lysed in Laemmli lysis buffer (0.5 M Tris-HCl, pH 6.8, 0.002M EDTA, 10% glycerol, 10% sodium dodecyl sulfate (SDS), and 5% β-mercaptoethanol). Protein lysates (50 μg/lane) were electrophoresed on 12% SDS-polyacrylamide gels and transferred to nitrocellulose membranes. Membranes were blocked with 5% nonfat dried milk in PBS/0.5% Tween 20 and then incubated with the appropriate antibodies. Horseradish peroxidase-conjugated rabbit anti-mouse IgG was used as the secondary antibody, and bands were developed using the Amersham ECL non-radioactive method.
In general terms: In western blotting, separated proteins are transferred to a membrane and probed.

Data set [14] concerns Bcl-XL in leukemic cells. Put plainly: Bcl-XL cleavage by Western blot. The format is cell-based, human. The following applies: 50 μM inhibitor with 1 μM 3-Cl-AHPC, 24 hours. How it is done: as §1
Data set [15] relates to leukemic blasts from patients (AML or CML in blast crisis). Put plainly: apoptosis in primary cultures of patient leukemic blasts. The format is cell-based, human. How it is done: (§2) Cell Growth: IL-3-transfected M07e cells have been described by Thacker, D. J., et al., Leukemia 8: 871-877 (1994). Cells were grown in RPMI supplemented with 5 percent heat-inactivated fetal bovine serum (FBS) and 25 μg/ml gentamycin in a […], 5% CO2, and 100% humidity environment. Leukemic cells were obtained from patients who met the criteria for the diagnosis of AML or CML in blast crisis (see Table 1). Studies were approved by the Wayne State University Institutional Review Board. Informed consent was obtained from all patients. Leukemic blasts from patients were isolated using Ficoll hypaque. Cells at the interface between plasma and red blood cells were diluted with sterile PBS, then layered over Ficoll hypaque (1.077 density), and the leukemic cells collected at the interface. The sample to be studied represented greater than 90% blasts. The patient leukemia samples were grown in RPMI medium supplemented with 10% FBS, gentamycin (25 μg/ml), IL-3 (20 ng/ml), SCF (25 ng/ml), GM-CSF (20 ng/ml) and G-CSF (20 ng/ml). Cell growth was assessed using a cell proliferation kit.
(§3) Apoptosis Quantification: Staining of apoptotic cells was performed as described by Gavreli, Y., et al., (J. Cell. Biol. 119: 493-501 (1992)) and Whitacre, C. M., et al., (Cancer Res. 55: 3697-3701 (1995)). After 3-Cl-AHPC treatment, cells were harvested, washed with PBS and resuspended at 1×10^6 cells/ml. Cell suspensions (50 μl) were stained with […] of acridine orange solution ([…]) in PBS in the dark. Cells displaying fragmented DNA were detected using a fluorescent microscope. Apoptotic cells were also detected using a kit. Cells that incorporated fluorescein labeled deoxyuridine triphosphate were detected using flow cytometry.

Data set [16] concerns acute promyelocytic leukemia (APL). The following applies: cited from earlier work.
Data set [17] deals with human acute megakaryocytic leukemia cell line M07e. The experiment in a line: M07e apoptosis quantification. Format: cell-based. As to the method:
as §3

Data set [18] has the same test system. Put plainly: M07e cell growth / proliferation. Format: cell-based. The following applies: varying concentrations over time. How it is done:
as §2

Data set [19] concerns Human Breast Cancer Cells. Put plainly: apoptosis induction / cell death in breast cancer cells (all lines). The format is cell-based. As to conditions: 10 μM.
The mark [20] stands for this setting: total dose 133 mg/kg, days 1, 2, 5-9.
[21] abbreviates: total dose 150 mg/kg, days 1, 2, 7-9.

Chain of RARγ (P13631 whole entry, species assumed): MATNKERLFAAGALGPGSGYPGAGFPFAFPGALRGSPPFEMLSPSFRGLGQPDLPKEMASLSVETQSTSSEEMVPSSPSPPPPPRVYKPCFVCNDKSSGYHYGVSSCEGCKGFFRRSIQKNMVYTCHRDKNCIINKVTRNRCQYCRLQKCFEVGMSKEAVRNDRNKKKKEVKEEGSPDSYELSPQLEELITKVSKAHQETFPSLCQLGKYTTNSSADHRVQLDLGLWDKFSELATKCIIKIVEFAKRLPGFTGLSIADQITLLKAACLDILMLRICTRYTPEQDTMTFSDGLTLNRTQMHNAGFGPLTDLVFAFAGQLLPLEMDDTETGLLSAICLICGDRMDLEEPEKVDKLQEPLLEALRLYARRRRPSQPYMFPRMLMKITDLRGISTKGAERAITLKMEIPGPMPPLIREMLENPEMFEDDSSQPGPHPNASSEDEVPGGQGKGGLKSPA

Consider `O=C(O)c1ccc2cc(-c3ccc(O)c(C45CC6CC(CC(C6)C4)C5)c3)ccc2c1` [AHPN, 6-[3-(1-adamantyl)-4-hydroxyphenyl]-2-naphthalenecarboxylic acid], for which the “apoptosis of HL-60R cells (lack functional RARs)” value in data set [1] is “results in apoptosis”. In data set [2], the “binding and transactivation of RAR subtype α” value was “extremely poor binder and transactivator”. Also, in data set [3], the “binding to the RXRs” value is “does not bind”. Besides, the “p38 and JNK activation” value in data set [4] (HL-60R human leukemia cell line) was “p38 and JNK activation”. Moreover, the “time to activation of the p38 and JNK kinases” value in data set [4] was ≤ 1 h. Also, the “caspase 3 activity” value in data set [5] is “stimulation of caspase 3 activity”. Besides, the “binding and transactivation of RARγ” value in data set [6] is “binds and transactivates”. Moreover, in data set [7] (five treated mice), the “treated mice tumor-free more than 150 days (considered cured)” value was “one out of the five”. In data set [7] (treated SCID mice), this compound had a Tumor growth inhibition of 85.7%, a growth delay of 21 days and a log cell kill of 2.1. Moreover, in [8], the “apoptosis of ALL cells obtained from patients” value is on record as “induced apoptosis”. Besides, in data set [9] (total dose 99 mg/kg, days 1-9), the “% body wt. loss” value is on record as −4%, the Drug deaths is 0/5 and the T/C % is recorded as 47%. In addition, in data set [9] (setting [20]), the “% body wt. loss” value is listed as −11%, the Drug deaths is recorded as 0/5, the Log cell kill is 0.49 and the T/C % was found to be 39%. For the same compound, in data set [9] (setting [21]), the “% body wt. loss” value is −21%, the Drug deaths is given as 1/5, the Log cell kill amounted to 0.63 and the T/C % turned out to be 30%. In addition, the “binding and transactivation of RARβ” value in [10] was “binds and transactivates”. Also, the “apoptosis of K562 cells (resistant to tRA)” value in data set [11] was “results in apoptosis”.
`O=C(O)/C=C/c1ccc(-c2ccc(O)c(C34CC5CC(CC(C5)C3)C4)c2)cc1Cl` [Example 2, (E)-4-[3-(1-Adamantyl)-4-hydroxyphenyl]-2-chlorocinnamic acid] yielded a melting point of 276 to 278 °C.
Same read-out and setting: the figure for `Cc1cc(/C=C/C(=O)O)ccc1-c1ccc(O)c(C23CC4CC(CC(C4)C2)C3)c1` [Example 3, (E)-4-[3-(1-Adamantyl)-4-hydroxyphenyl]-3-methylcinnamic acid] is 232 to 234 °C; for `Cc1cc(/C=C/C(=O)O)cc(C)c1-c1ccc(O)c(C23CC4CC(CC(C4)C2)C3)c1` [Example 4, (E)-4-[3-(1-Adamantyl)-4-hydroxyphenyl]-3,5-dimethylcinnamic acid] it is 127 to 129 °C.
As to `COc1cccc(-c2cc(=O)c3ccccc3o2)c1N` [PD98059], in data set [12], the “effect on 3-Cl-AHPC-mediated apoptosis” value was “did not inhibit or enhance 3-Cl-AHPC-mediated apoptosis”.
Regarding `COC(=O)C[C@H](NC(=O)[C@H](C)NC(=O)[C@@H](NC(=O)OCc1ccccc1)C(C)C)C(=O)CF` [ZVAD-fmk] (Cbz-Val-Ala-Asp(OMe)-CH2F), in [13], the “effect on 3-Cl-AHPC activation of JNK” value is listed as “not inhibited”; the “effect on 3-Cl-AHPC activation of p38 and ERK” value is on record as “prevent their activation by 3-Cl-AHPC”. In [14], the “effect on 3-Cl-AHPC-mediated Bcl-XL cleavage” value is given as “inhibited Bcl-XL cleavage”.
As for `CC1=C(/C=C/C(C)=C/C=C/C(C)=C/C(=O)O)C(C)(C)CCC1` [tRA, trans-retinoic acid, reference compound], in data set [15] (1 μM, 11 primary cultures), the induction of apoptosis entry is recorded as “did not induce apoptosis”. For the same compound, the “proliferation and apoptosis of primary human AML cultures (FIG. 13)” value in data set [15] (non-APL AML samples) is “had no effect”. The “patients achieving a complete remission” value in data set [16] is recorded as 90%. Besides, the inhibition of proliferation entry in [17] was “did not significantly inhibit M07e proliferation (FIG. 2C) or induce apoptosis”; in [18], “did not significantly inhibit M07e proliferation”. Besides, the “killing of breast carcinoma cells” value in data set [19] is listed as “did not kill the cells”.

As a reminder, the melting point is the temperature, or range, at which the solid turns liquid.
